{"source": "paper PMC11124362", "about": "“Metabolism, Disposition, Excretion, and Potential Transporter Inhibition of 7–16, an Improving 5-HT2A Receptor Antagonist and Inverse Agonist for Parkinson’s Disease” (Molecules, 2024)", "key": {"[1]": {"assay": "Metabolite identification in dog liver microsomes", "type": "in vitro ADME", "conditions": "7–16 10 µM, liver microsomes 1 mg/mL, NADPH, 37 °C, 60 min", "description": "(§1) In accordance with our previous methods, 7–16 (10 µM) was incubated with mouse, rat, dog, monkey, and human liver microsome proteins (1 mg/mL) in 100 mM sodium phosphate buffer (pH 7.4) containing 10 mM magnesium chloride and 2 mM NADPH at 37 °C for 60 min. All samples were prepared in duplicates. The reactions were terminated by adding three times the volume of ice-cold acetonitrile (600 µL) and stored at −20 °C until analysis. Control samples without NADPH and 0-time point samples were included. As a positive control, testosterone (10 µM), which was metabolized to produce the hydroxylation metabolite, was used as a substrate to confirm the activity of the incubation system.\n(§2) After pre-treatments, the samples were analyzed by an Acquity UPLC system coupled with a diode array detector (Waters Corporation, Milford, MA, USA) and Q Exactive HRMS (Thermo Electron Corporation, Waltham, MA, USA) (UPLC–UV-Q Exactive HRMS). Samples were separated on an Agilent XDB C18 column (150 × 2.1 mm i.d. 3.5 μm, Agilent Corporation, Santa Clara, CA, USA) at 40 °C by gradient elution with water and acetonitrile containing 0.1% formic acid. The flow rate was 0.40 mL/min. The ultraviolet (UV) detection wavelength was 286 nm. Q Exactive HRMS were operated at positive ion mode (3.5 kV) using a heating electrospray ionization source. Mass calibration was required to be performed before conducting experiments so as to achieve the best mass accuracy and mass calibration should be performed every five days. The metabolites were detected by full MS/dd-MS^2 analysis from m/z 100 to m/z 1000. The resolution of the first-class scan and second-class scan was 70,000 and 17,500, respectively. Thermo Compound Discover software was used to identify expected and unknown metabolites, and we finally proposed the 7–16 metabolic pathways based on the deduced metabolites and relevant drug biotransformation knowledge."}, "CYP1A2 [2]": {"system": "CYP1A2", "assay": "Metabolic phenotype by rhCYP isozymes, CYP1A2", "type": "in vitro ADME, human", "conditions": "7–16 1 µM", "description": "(§3) Based on the result of metabolite identification, two metabolites were selected as targets for metabolic phenotyping analysis. Seven CYP isozymes (CYP1A2, CYP2B6, CYP2C8, CYP2C9, CYP2C19, CYP2D6, and CYP3A4) were investigated using the rhCYP isozymes method. In brief, 7–16 (1 µΜ) was incubated with each rhCYP isozyme ([…]) in 100 mM sodium phosphate buffer (pH 7.4) containing 3 mM magnesium chloride. After 10 min of preincubation at 37 °C, the reactions were initiated by adding NADPH (1 mM) and then incubated at 37 °C in a shaking water bath for 0, 5, 15, and 30 min. The specific substrates of each rhCYP isozyme were incubated as the above method to confirm the activity of the incubation system. The samples were prepared in triplicates. The reactions were terminated by adding three times the volume of ice-cold acetonitrile (600 µL) and stored at −20 °C until analysis. After pre-treatment, the samples were determined by the LC–MS/MS (Shimadzu Exion-Triple Quad 4500) method. The relative contribution rate of each isozyme to the metabolism of 7–16 was evaluated in HLMs using the following formula: Contributionx% = Vx × Abundancex (pmol/mg protein)/Σ(Vi × Abundancei). Vx (µL/min/pmol) is the production rate of metabolites for each rhCYP isozyme."}, "[3]": {"assay": "Metabolite identification in monkey liver microsomes", "type": "in vitro ADME", "conditions": "7–16 10 µM, liver microsomes 1 mg/mL, NADPH, 37 °C, 60 min", "description": "as §1, §2"}, "CYP1A2 [4]": {"system": "CYP1A2", "design": "method as in PMID 35279606", "conditions": "previous study; read-out: CYP1A2 inhibition IC50; cited from earlier work"}, "CYP3A4": {"system": "CYP3A4", "design": "method as in PMID 35279606", "conditions": "previous study; read-out: CYP3A4 inhibition IC50; cited from earlier work"}, "[5]": {"assay": "Metabolite identification in rat liver microsomes", "type": "in vitro ADME", "conditions": "7–16 10 µM, liver microsomes 1 mg/mL, NADPH, 37 °C, 60 min", "description": "as §1, §2"}, "OAT1": {"target": "T1, OAT1 (Homo sapiens, UniProt Q4U2R8)", "T1 construct": "host or cells: HEK293", "T1 sequence (Q4U2R8 1-563)": "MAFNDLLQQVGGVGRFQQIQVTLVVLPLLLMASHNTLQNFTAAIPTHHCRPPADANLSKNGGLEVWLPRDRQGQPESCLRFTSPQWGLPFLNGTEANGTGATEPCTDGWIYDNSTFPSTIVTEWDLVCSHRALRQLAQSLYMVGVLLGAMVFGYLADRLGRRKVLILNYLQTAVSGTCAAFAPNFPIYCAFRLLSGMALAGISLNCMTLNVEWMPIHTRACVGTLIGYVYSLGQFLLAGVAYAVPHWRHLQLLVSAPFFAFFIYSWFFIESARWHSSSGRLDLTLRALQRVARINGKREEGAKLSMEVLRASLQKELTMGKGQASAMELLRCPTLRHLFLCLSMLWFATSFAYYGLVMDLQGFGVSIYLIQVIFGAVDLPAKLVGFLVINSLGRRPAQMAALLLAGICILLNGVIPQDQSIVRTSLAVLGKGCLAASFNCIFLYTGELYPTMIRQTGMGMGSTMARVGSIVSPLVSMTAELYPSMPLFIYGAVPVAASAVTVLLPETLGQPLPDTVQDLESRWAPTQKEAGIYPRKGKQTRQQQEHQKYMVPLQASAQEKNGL", "assay": "OAT1 inhibitor assay in HEK293 cells", "type": "in vitro ADME", "conditions": "substrate p-Aminohippurate, read-out: Inhibition IC50, OAT1"}, "P-gp": {"target": "T2, P-gp (Homo sapiens, UniProt P08183)", "T2 construct": "expressed in transfected cells; host or cells: MDR1-MDCKII (Madin-Darby canine kidney cells)", "T2 sequence (P08183 whole entry)": "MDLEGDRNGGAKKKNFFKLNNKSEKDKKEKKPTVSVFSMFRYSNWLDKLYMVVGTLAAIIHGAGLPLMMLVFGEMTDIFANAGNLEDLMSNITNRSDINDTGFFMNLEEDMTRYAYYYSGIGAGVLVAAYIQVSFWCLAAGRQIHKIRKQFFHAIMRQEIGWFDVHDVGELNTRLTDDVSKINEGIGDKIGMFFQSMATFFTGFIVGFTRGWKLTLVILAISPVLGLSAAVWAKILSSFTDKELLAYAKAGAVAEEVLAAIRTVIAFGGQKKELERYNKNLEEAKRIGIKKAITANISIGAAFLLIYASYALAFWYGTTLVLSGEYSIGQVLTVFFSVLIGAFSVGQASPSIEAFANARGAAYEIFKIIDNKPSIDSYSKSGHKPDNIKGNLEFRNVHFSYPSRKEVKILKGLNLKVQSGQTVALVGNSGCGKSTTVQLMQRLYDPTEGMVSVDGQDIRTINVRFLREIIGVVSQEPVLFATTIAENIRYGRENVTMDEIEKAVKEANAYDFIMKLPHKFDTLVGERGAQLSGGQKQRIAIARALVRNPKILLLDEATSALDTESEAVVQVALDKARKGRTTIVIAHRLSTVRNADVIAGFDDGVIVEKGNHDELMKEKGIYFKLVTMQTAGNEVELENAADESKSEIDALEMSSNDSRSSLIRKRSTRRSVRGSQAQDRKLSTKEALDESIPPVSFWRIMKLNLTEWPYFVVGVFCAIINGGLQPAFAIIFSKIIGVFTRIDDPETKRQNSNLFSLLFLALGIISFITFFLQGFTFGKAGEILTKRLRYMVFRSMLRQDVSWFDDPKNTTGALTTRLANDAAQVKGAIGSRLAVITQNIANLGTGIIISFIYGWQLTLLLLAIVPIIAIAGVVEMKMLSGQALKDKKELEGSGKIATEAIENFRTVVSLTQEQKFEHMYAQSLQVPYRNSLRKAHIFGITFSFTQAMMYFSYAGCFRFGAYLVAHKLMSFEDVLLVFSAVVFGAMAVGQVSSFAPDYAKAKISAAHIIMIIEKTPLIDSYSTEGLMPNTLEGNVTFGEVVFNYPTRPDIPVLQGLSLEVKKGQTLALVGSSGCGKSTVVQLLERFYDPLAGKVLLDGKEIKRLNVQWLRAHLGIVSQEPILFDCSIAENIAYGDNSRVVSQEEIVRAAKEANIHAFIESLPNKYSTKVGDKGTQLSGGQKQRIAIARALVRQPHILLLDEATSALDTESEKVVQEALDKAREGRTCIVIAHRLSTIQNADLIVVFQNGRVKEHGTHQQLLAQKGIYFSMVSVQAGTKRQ", "assay": "P-gp inhibitor assay in MDR1-MDCKII cells", "type": "in vitro ADME", "conditions": "substrate Digoxin 10.0 µM, efflux ratio, read-out: Inhibition IC50, P-gp"}, "CYP2C8": {"system": "CYP2C8", "assay": "Metabolic phenotype by rhCYP isozymes, CYP2C8", "type": "in vitro ADME, human", "conditions": "7–16 1 µM", "description": "as §3"}, "[6]": {"assay": "Metabolite identification in mouse liver microsomes", "type": "in vitro ADME", "conditions": "7–16 10 µM, liver microsomes 1 mg/mL, NADPH, 37 °C, 60 min", "description": "as §1, §2"}, "[7]": {"assay": "Metabolite identification in human liver microsomes", "type": "in vitro ADME", "conditions": "7–16 10 µM, liver microsomes 1 mg/mL, NADPH, 37 °C, 60 min", "description": "as §1, §2"}, "hERG": {"system": "hERG", "design": "method as in PMID 35279606", "conditions": "versus pimavanserin; cited from earlier work"}}}
{"smiles": "CN1CCC(N(Cc2ccc(F)cn2)C(=O)NCc2ccc(OCC(F)(F)F)cc2)CC1", "note": "[7–16, 3-(4-(2,2,2-trifluoroethoxy)benzyl)-1-((5-fluoropyridin-2-yl)methyl)-1-(1-methylpiperidin-4-yl) urea]", "values": [{"measurement": "Relative Abundance, UV Area% Dog", "setting": "[1]", "result": 77.2, "unit": "%"}, {"measurement": "relative contribution of CYP1A2 to metabolism", "setting": "CYP1A2 [2]", "result": "little or no contribution"}, {"measurement": "Relative Abundance, UV Area% Monkey", "setting": "[3]", "result": 90.6, "unit": "%"}, {"measurement": "IC50", "setting": "CYP1A2 [4]", "result": 8.5, "unit": "µM"}, {"measurement": "IC50", "setting": "CYP3A4", "result": "> 62.9", "unit": "µM"}, {"measurement": "Relative Abundance, UV Area% Rat", "setting": "[5]", "result": 86.1, "unit": "%"}, {"measurement": "IC50", "setting": "OAT1", "result": "> 100", "unit": "µM"}, {"measurement": "IC50", "setting": "P-gp", "result": 30.6, "unit": "µM"}, {"measurement": "relative contribution of CYP2C8 to metabolism", "setting": "CYP2C8", "result": "little or no contribution"}, {"measurement": "Relative Abundance, UV Area% Mouse", "setting": "[6]", "result": 91.3, "unit": "%"}, {"measurement": "Relative Abundance, UV Area% Human", "setting": "[7]", "result": 95.2, "unit": "%"}, {"measurement": "fold weaker hERG inhibitory activity than pimavanserin", "setting": "hERG", "result": 2, "unit": "fold"}]}
